Results published in US20100004248A1, “Use of a Nitric Oxide Synthase Modulator for the Treatment of Cardiac Indications” (priority 2005, published 2010).

Tests used:
reactive oxygen species = assay: Reactive oxygen species generation in TAC myocardium (luminol, lucigenin, DHE, DCF); type: in vivo, mouse; conditions: WT mice, TAC 3 weeks, oral co-treatment
Procedure: Reactive oxygen species generation was examined by several independent methods. Superoxide production in left ventricular tissue homogenates was determined by luminol-enhanced chemiluminescence (EMD Biosciences). Flash frozen myocardium was homogenized in iced PBS buffer, centrifuged, and the precipitate re-suspended in assay buffer to a final concentration of 100 μM luminol following manufacturer's instructions. Phorbol-12-myristate-13-acetate or other oxidase stimulators were not used in the assay. Data were normalized by sample weight. In addition, fresh frozen left ventricular myocardium (8 μm slices) was incubated for 1 hour at 37° C. with florescent dyes 2′,7′-dichlorodihydro-fluorescein diacetate (DCF; Molecular Probes; 4 μM) (Invitrogen Corp.) reflecting hydrogen peroxide formation (DCF staining localizes principally to mitochondria within myocytes), dihydroethidium (DHE; Molecular Probes; 2 μM) which assesses O2^− formation (typically nuclear localization), and nitrotyrosine formation (polyclonal nitrotyrosine Ab, 1:100; Upstate), which can reflect formation of ONOO^−. Imaging was performed on a Zeiss inverted epifluorescence microscope attached to an argon-krypton laser confocal scanning microscope (UltraVIEW, Perkin Elmer Life Sciences, Inc.). […] Nitrotyrosine was also quantitatively assessed by ELISA assay (Oxis International).

[1] = tested on: C57/BL6 WT mice subjected to TAC pressure overload; assay: In vivo hemodynamics, PV loop analysis, in TAC mice; parameters: species or system mouse; conditions: TAC 3 weeks
Text: (§1) Male NOS3 null mice (NOS3^−/−) and C57/BL6 WT controls (8-11 weeks, Jackson Labs, Bar Harbor, Me., USA) were used. Pressure overload was produced by transverse aorta constriction (TAC). Briefly, The aortic arch was isolated by entering the extrapleural space between the second and third rib, and afterwards the transverse aorta was isolated between the right and left carotid arteries. A 7-0 prolene suture ligature was tied around the transverse aorta against a 27-gauge needle to produce a 65-70% constriction after the removal of the needle. After closing the chest, animals were extubated, and a subcutaneous injection of morphine sulphate 0.2 mg, was administered before they returned to their cages. Animal's ventilatory and circulatory status was checked every 30 minutes during the first 2 hours. Sham-operated mice underwent the same operation except for aortic constriction. […] Animals were randomized to receive placebo or BH4 (120 mg/kg/d) for the next 5 weeks. At the end of the study, i.e. at 9 weeks, animal were sacrificed to receive tissue or underwent in vivo PV-loop analysis. […] Control mice were subject to sham operations, and animals were studied 3-9 weeks following surgery. An additional group of wild-type animals were subjected to TAC for 3 weeks while co-treated with oral tetrahydrobiopterin (BH4) (Sigma-Aldrich) (1 mg/g food) mixed in their rodent chow, providing 5 mg/day based on 4-6 g daily diet^8.
(§2) Two different BH4 treatment protocols are used. For experiments related to FIGS. 1-7, where prevention of cardiac indications is described BH4 is provided orally as a treatment starting 2 days after TAC surgery (once mice are again eating oral diet). For those figures related to treatment of established cardiac indications, FIGS. 8-23, BH4 is provided orally but this is delayed for 4 weeks to establish substantial cardiac hypertrophy, remodeling, and NOS-uncoupling. Then the treatment is provided for the remaining 5 week period.
In vivo left ventricular (LV) function was assessed by pressure-volume catheter^12,13. Mice were anesthetized with 1-2% isoflurane, urethane ([…], i.p.), etomidate (5-10 mg/kg, i.p.), and morphine (1-2 mg/kg, i.p.), underwent tracheostomy, and were ventilated with 6-7 μL/g tidal volume and 130 breaths/min. Volume expansion (12.5% human albumin, 50-100 μL over 5 min) was provided through a 30 G cannula via the right external jugular vein. The left ventricular apex was exposed through an incision between the 7-8th rib, and a catheter, specifically a 1.4 Fr PV catheter (SPR 839, Millar Instruments, Inc.), was advanced through the apex to lie along the longitudinal axis. Absolute volume was calibrated, and pressure-volume data was measured at steady state and during transient reduction of venous return as reported^13

NOS = assay: Calcium dependent NOS activity, arginine to citrulline conversion, in myocardial homogenates of TAC hearts; type: in vivo, mouse; conditions: WT mice, TAC 3 weeks, oral co-treatment
Procedure: SDS-resistant NOS3 dimers and monomers were assayed using low-temperature SDS PAGE under reducing or non-reducing conditions, as described previously^7. NOS3 was immunoprecipitated as described^16 and the resulting samples added to fivefold Laemmli buffer (0.32 mol/l Tris-HCl, pH 6.8, 0.5 mol/l glycine, 10% SDS, 50% glycerol, and 0.03% bromophenol blue) in non-reducing gel (no 2-mercaptoethanol) to identify dimer dissociation due to reduced disulfide bridges. To provide fully denatured control lanes, samples were boiled for 15 minutes prior to loading. Electrophoresis was performed using Tris glycine 6% gels (Invitrogen Corp.), and gels and buffers maintained in an ice bath at 4° C. and stained (SimplyBlue, Invitrogen Corp.). Calcium dependent and independent NOS activity was determined from myocardial homogenates by [3H] L-arginine to [3H] citrulline conversion (Sigma-Aldrich) as described^16. An alternative approach involved more direct Western blot analysis without requiring initial NOS IP. Cold SDS-Page Western blot analysis was performed using a self-made […] SDS-Tris gel. After overnight running on ice, the gel was transferred for 3 h to nitrocellulose membrane. […] Bound antibodies were detected with horseradish peroxidase-conjugated anti-mouse IgG and visualize with an enhanced chemiluminescence detection system.

[2] = tested on: C57/BL6 WT mice subjected to TAC pressure overload; assay: Transthoracic echocardiography in conscious TAC mice; type: in vivo, mouse; conditions: WT mice, TAC 3 weeks, oral co-treatment 1 mg/g food; mean ± sem
Text: as §1, §2
For folate studies, C57/BL6 WT were treated with folate (10 mg/kg/day) or with placebo for a 9 week period during which time the hearts were exposed to TAC.
In vivo cardiac morphology was assessed by transthoracic echocardiography (Acuson Sequoia C256, 13 MHz transducer, Siemens) in conscious mice. M-mode left ventricular (LV) end-systolic and end-diastolic dimensions were averaged from 3-5 beats. Left ventricular ejection fraction (LVEF) and percent fractional shortening (% FS) were calculated as: LVEF=[(LVEDD)^3-(LVESD)^3]/(LVEDD)^3×100; % FS=(LVEDD−LVESD)/LVEDD×100. Wall thickness of lateral freewall and intraventricular septum were averaged. Studies and analysis were performed blinded to heart condition.

[3] = oral co-treatment 1 mg/g food, mean ± sem

Nc1nc2c(c(=O)[nH]1)NC(C(O)C(O)CO)CN2 (stereo not drawn) [H4N, tetrahydroneopterin]
reactive oxygen species generation (luminol chemiluminescence, DHE, DCF) (reactive oxygen species): None of these changes were observed
functional or remodeling response to TAC ([1]; oral co-treatment): no effect
Arterial Elastance [1, 3]: 11.4 ± 0.7 mmHg/μL
Ejection Fraction [1, 3]: 43.4 ± 9.8%
End-diastolic Volume [1, 3]: 38.8 ± 8.0 µL
End-systolic Elastance [1, 3]: 41.0 ± 9.3 mmHg/μL · g
End-systolic Volume [1, 3]: 24.0 ± 7.6 µL
Heart RateR [1, 3]: 501.2 ± 28.5 min⁻¹
LV Systolic Pressure [1, 3]: 177.8 ± 4.6 mmHg
Peak Power Index [1, 3]: 31.8 ± 5.8 mmHg/s
Tau [1, 3]: 5.5 ± 0.36 ms
dPdtmn [1, 3]: −10725 ± 971.0 mmHg/s
dPdtmx [1, 3]: 11154 ± 520 mmHg/s
Ca^2+-dependent NOS activity (NOS): unaltered
Fractional Shortening [2]: 33.8 ± 5.3%
LV diameter Diastole [2]: 3.94 ± 0.19 mm
LV diameter Systole [2]: 2.70 ± 0.31 mm
Wall thickness [2]: 0.98 ± 0.03 mm
